Data set [1] relates to mouse L1210 leukemia cells. Kind of data set: Formation of L1210 leukemia cell colonies in soft agar. The format is cell-based. The conditions noted are these: for IC50: Mus musculus, L1210, 168 h, read-out: Cytotoxicity (continuous incubation) IC50; for cytostatic activity compared with adriamycin: result in words, test not named. How it is done: The cytostatic activity of the compounds according to the invention has been tested using mouse L1210 leukemia cells. Use was made for this of the formation of L1210 leukemia cell colonies in soft agar. This method is used to detect the effect of the test substances on the growth behavior of the cells over several generations. In this connection, with a cell cycle time of 10 to 12 hours, about 14 consecutive generations are observed in the 7-day duration of the test. In this test, the substances having cytostatic activity according to the invention bring about a reduction, compared with an untreated control sample, in the number of colonies which is to be observed.
500 leukemia cells per plate were incubated with various concentrations of the test substance at 37° C. for 1 hour. The cells were then washed twice with McCoy 5A medium, 0.3% agar was added, and finally the mixture was poured into Petri dishes. Controls were incubated only with fresh medium. In place of the incubation for one hour, in some cases various concentrations and test substances were mixed with the upper agar layer in order in this way to achieve continuous exposure of the cells throughout the incubation time. After the agar had solidified, the plates were incubated in an incubator at 37° C. for 7 days (5% by volume CO2, 95% relative atmospheric humidity). Thereafter the number of colonies with a diameter of more than 60μ which had formed was counted. The results have been stated as the number of colonies in treated agar plates as a percentage of the untreated control. The dose-effect graph obtained in this way was used to determine the IC50 as a measure of the activity of the substance. The results for the compounds described here are compiled in Table 1, comparing with adriamycin.

The nature of data set [2]: Acute toxicity in NMRI mice after intravenous injection. The conditions noted are these: mouse, in vivo, survival on day 14, Litchfield-Wilcoxon. As for the experimental part:
Details of the test method are evident from the procecdure for determining the formation of colonies given herein after. Appropriate tests on NMRI mice were carried out to determine the acute toxicity of the anthracycline derivatives according to the invention. Details of the test method are evident from the procedure for determining the acute toxicity given hereinafter.
Determination of the acute toxicity entailed intravenous injection of various doses of the test substance, disolved in 0.5 ml of physiological saline solution, in NMRI mice on day 0. Control groups received only 0.5 ml of physiological saline solution. 5 mice were used for each concentration of the test substance. The number of surviving mice was determined on day 14, and the LD50 was determined therefrom by the Litchfield-Wilcoxon method. The toxicity of the compounds described here is compiled in Table 1, comparing with adriamycin.

These results are taken from patent publication US4965352A, “Anthracycline derivatives having cytostatic activity” (Behringwerke Aktiengesellschaft, priority 1986, dated 1990).

In brackets after ≈: the same amount, converted by molar mass.

With `CC[C@@]1(O)C[C@H](O[C@H]2C[C@H](NC)[C@H](O)[C@H](C)O2)c2c(O)c3c(c(O)c2[C@H]1C(=O)OC)C(=O)c1c(O)ccc(O)c1C3=O` [Compound 9, 7-O-(3'-N-methyl--L-daunosaminyl)-ε-isorhodomycinone], the IC50 in data set [1] was 0.028 µg/mL (≈ 0.0477 µM).
As for `CC[C@@]1(O)C[C@H](O[C@H]2C[C@H](N(C)C)[C@H](OC(C)=O)[C@H](C)O2)c2c(O)c3c(c(O)c2[C@H]1C(=O)OC)C(=O)c1c(O)ccc(O)c1C3=O` [Compound 1, 7-O-(4'-O-acetyl--L-rhodosaminyl)-ε-isorhodomycinone], in data set [1], the IC50 worked out at 0.028 µg/mL (≈ 0.0435 µM) and the “cytostatic activity compared with adriamycin” value is recorded as “comparable with that of adriamycin”. This compound also displayed a 50% lethal dose (LD50) at 336 h in data set [2] of 89 mg/kg.
With `CC[C@@]1(O)C[C@H](O[C@H]2C[C@H](NC(=O)C(F)(F)F)[C@H](O)[C@H](C)O2)c2c(O)c3c(c(O)c2[C@H]1C(=O)OC)C(=O)c1c(O)ccc(O)c1C3=O` [Compound 5, 7-O-(3'-N-trifluoroacetyl-α-L-daunosaminyl)-ε-isorhodomycinone], the IC50 in data set [1] amounted to 0.4 µg/mL (≈ 0.597 µM).
For `COc1cccc2c1C(=O)c1c(O)c3c(c(O)c1C2=O)C[C@@](O)(C(=O)CO)C[C@@H]3O[C@H]1C[C@H](N)[C@H](O)[C@H](C)O1` [Adriamycin, reference compound], in data set [1], the half-maximal inhibitory concentration (IC50) was 0.02 µg/mL (≈ 0.0368 µM). Also, the LD50 at 336 h in data set [2] came to 26.5 mg/kg.
For `CC[C@@]1(O)C[C@H](O[C@H]2C[C@H](NC)[C@H](OC(C)=O)[C@H](C)O2)c2c(O)c3c(c(O)c2[C@H]1C(=O)OC)C(=O)c1c(O)ccc(O)c1C3=O` [Compound 8, 7-O-(4'-O-acetyl-3'-N-methyl-α-L-daunosaminyl)-ε-isorhodomycinone], in data set [1], the IC50 is 0.1 µg/mL (≈ 0.159 µM).
Turning to `CC[C@@]1(O)C[C@H](O[C@H]2C[C@H](N(C)C)[C@H](O)[C@H](C)O2)c2c(O)c3c(c(O)c2[C@H]1C(=O)OC)C(=O)c1c(O)ccc(O)c1C3=O` [Compound 2, 7-O-(α-L-rhodosaminyl)-ε-isorhodomycinone], in data set [1], the half-maximal inhibitory concentration (IC50) was 0.035 µg/mL (≈ 0.0582 µM) and the “cytostatic activity compared with adriamycin” value was “comparable with that of adriamycin”. Further, in data set [2], the LD50 at 336 h is 50 to 100 mg/kg.

As a reminder, the IC50 is the concentration that inhibits the measured activity by half. By LD50 is commonly meant the dose at which mortality reaches 50%. The low end stands for a more toxic substance, the high end for a less toxic substance.
